In US20070154540A1 (KMSI CO., LTD., priority 2003, published 2007):

What was measured:
[1] = test system: osteoarthritis-induced New Zealand white rabbits; test: Visual observation of joint cartilage in ACLT osteoarthritis-induced rabbits; format: in vivo
Source text: To prepare an osteoarthritis animal model, New Zealand white rabbits underwent anterior cruciate ligament transection (ACLT) in joints of their two hind legs. […] The following Examples 3 to 10 were all performed using joints of the osteoarthritis-induced New Zealand white rabbits prepared as in this Example 2. […] In contrast, in the PBS control group, the surface of joint cartilage was very rough due to the damage of the joint cartilage.

[2] = test system: osteoarthritis-induced New Zealand white rabbits; test: Prostaglandin E2 levels in joint synovial fluids (EIA); format: in vivo
Source text: To prepare an osteoarthritis animal model, New Zealand white rabbits underwent anterior cruciate ligament transection (ACLT) in joints of their two hind legs. After three days, the rabbits were forced to sustain movement for four weeks in a space of 5×5 m^3 to induce substantial osteoarthritis. […] The following Examples 3 to 10 were all performed using joints of the osteoarthritis-induced New Zealand white rabbits prepared as in this Example 2.
Using the joint synovial fluids prepared in Example 3, prostaglandin E2 (PGE2) levels in synovial fluids were measured using an enzyme immunoassay (EIA) kit (DE0100, R&D Systems). 100 μl of a 1:10 dilution of a synovial fluid sample was mixed with 50 μl of a conjugate and 50 μl of an antibody in a plate provided in the kit, and was incubated with agitation at room temperature for two hours. Then, the plate was washed with a washing buffer, and 200 μl of a pNPP solution was added thereto, followed by incubation at room temperature for one hour. Thereafter, absorbance was measured at 405 nm.

COX-2 = test: Western blotting of COX-2 expression in LPS-treated RAW 264.7; format: cell-based, mice; details: LPS treatment = 100%, upon apigenin treatment
Protocol: A macrophage cell line derived from mice, RAW 264.7 (KCLB 40071), was purchased from the Korean Cell Line Bank. RAW 264.7 cells were seeded in a density of 3×10^6 cells onto 60-mm culture dishes containing DMEM (Dulbecco's Modified Eagle Medium, 12800-017, Gibco) supplemented with 10% FBS (fetal bovine serum, 26140-079, Gibco), 100 U/ml of penicillin and 100 μg/ml streptomycin (15140-122, Gibco), and cultured at 37° C. under 5% CO2 and humidity for 24 hrs. To induce NO production, RAW 264.7 cells were treated with 500 ng/ml of an E. coli cell wall component, lipopolysaccharide (LPS, L2654, Sigma). […] Herein, LPS was dissolved in distilled water, and apigenin was dissolved in DMSO. Then, the culture medium and a Griess reagent were mixed at a ratio of 1:1 (100 μl: 100 μl) and allowed to stand at room temperature for 10 min. Thereafter, absorbance was measured at 540 nm using a spectrophotometer (Power Wave X340, Bio-Tek).
RAW 264.7 cells were treated under the same conditions as in Example 12. […] Herein, for IκBα expression, the cells were treated with LSP for only two hours. […] After protein concentrations in cell lysates were measured, […] protein samples were separated on an 8-16% SDS (sodium dodecyl sulfate) polyacrylamide gel (EC60452, NOVEX). […]

## O=c1cc(-c2ccc(O)cc2)oc2cc(O)cc(O)c12 [apigenin, 4′,5,7-trihydroxyflavone]
[1]; apigenin-treated right joint, 50 μg once per week for four weeks
  surface of joint cartilage (visual): visually smooth
[1]; non-treated left joint of apigenin group
  cartilage in the left joint of the test group (visual): improved to some extent
[2]; apigenin-treated right leg (+), four weeks after drug injection
  PGE2 levels in joint synovial fluids: about 196.71 pg/ml
[2]; apigenin-treated right leg (+), four weeks after drug injection, listed as Apigenin
  PGE2 levels in joint synovial fluids: 196.71 ± 0.52 pg/mL
[2]; apigenin-treated right leg (+), two weeks after drug injection
  PGE2 levels in joint synovial fluids: 183.26 ± 0.2 pg/mL
[2]; non-treated left leg (−) of apigenin treatment group, four weeks after drug injection
  PGE2 levels in joint synovial fluids: about 753.2 pg/ml
[2]; non-treated left leg (−) of apigenin treatment group, four weeks after drug injection, listed as Apigenin
  PGE2 levels in joint synovial fluids: 509.2 ± 9.2 pg/mL
[2]; non-treated left leg (−) of apigenin treatment group, two weeks after drug injection
  PGE2 levels in joint synovial fluids: 543.3 ± 1.13 pg/mL
COX-2
  COX-2 expression level: 0%
